Tests used:
Format in all cases: in vivo
[1] = system: Surinam grass (Brachiaria decumbens); assay: Test B pre-/postemergence plant response; conditions: Postemergence
Procedure, shortened: (§1)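 Seeds sown in loam–sand blend were treated preemergence, and plants at 2–18 cm (1- to 4-leaf stage) in peat-based medium were treated postemergence; compounds were formulated in non-phytotoxic solvent with surfactant. After 13–15 days in greenhouse, response was visually rated against controls, 0 (no effect) to 100 (complete control).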

[2] = system: bermudagrass (Cynodon dactylon); assay: Test B pre-/postemergence plant response; conditions: Postemergence
Procedure, shortened: as §1

[3] = system: downy bromegrass (Bromus tectorum); assay: Test B pre-/postemergence plant response; conditions: Postemergence
Procedure, shortened: as §1

[4] = system: lambsquarters (Chenopodium album); assay: Test B pre-/postemergence plant response; conditions: Postemergence
Procedure, shortened: as §1

[5] = system: pigweed (Amaranthus retroflexus); assay: Test B pre-/postemergence plant response; conditions: Postemergence
Procedure, shortened: as §1

[6] = system: wheat (Triticum aestivum); assay: Test B pre-/postemergence plant response; conditions: Postemergence
Procedure, shortened: as §1

[7] = system: woolly cupgrass (Eriochloa villosa); assay: Test B pre-/postemergence plant response; conditions: Postemergence
Procedure, shortened: as §1

[8] = system: yellow nutsedge (Cyperus esculentus); assay: Test B pre-/postemergence plant response; conditions: Postemergence
Procedure, shortened: as §1

[9] = system: barnyardgrass (Echinochloa crus-galli); assay: Test B flooded paddy test; conditions: for Plant response rating, Flood, Barnyardgrass: 250 g ai/ha, flooded paddy test, visual rating on 0 to 100 scale (0 no effect, 100 complete control) after 13 to 15 days; for Plant response rating, Barnyardgrass: Flood (flooded paddy test), 13 to 15 days; for Barnyardgrass plant response rating: Flood, 31 g ai/ha, scale 0 to 100 (0 no effect, 100 complete control)
Procedure, shortened: (§2)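 Greenhouse-held for 13 to 15 days, treated pots were compared visually with controls and scored 0–100 (0, no effect). Treatment had been made into paddy water kept at 3 cm above the soil, with plants at the 2-leaf stage.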

[10] = system: ducksalad (Heteranthera limosa); assay: Test B flooded paddy test; conditions: for Plant response rating, Flood, Ducksalad: 250 g ai/ha, flooded paddy test, visual rating on 0 to 100 scale (0 no effect, 100 complete control) after 13 to 15 days; for Plant response rating, Ducksalad: Flood (flooded paddy test), 13 to 15 days; for Ducksalad plant response rating: Flood, 31 g ai/ha, scale 0 to 100 (0 no effect, 100 complete control)
Procedure, shortened: as §2

rice (Oryza sativa) = assay: Test B flooded paddy test; conditions: for Plant response rating, Flood, Rice: 250 g ai/ha, flooded paddy test, visual rating on 0 to 100 scale (0 no effect, 100 complete control) after 13 to 15 days; for Plant response rating, Rice: Flood (flooded paddy test), 13 to 15 days; for Rice plant response rating: Flood, 31 g ai/ha, scale 0 to 100 (0 no effect, 100 complete control)
Procedure, shortened: as §2

[11] = system: umbrella sedge (Cyperus difformis); assay: Test B flooded paddy test; conditions: for Plant response rating, Flood, Sedge, Umbrella: 250 g ai/ha, flooded paddy test, visual rating on 0 to 100 scale (0 no effect, 100 complete control) after 13 to 15 days; for Plant response rating, Sedge, Umbrella: Flood (flooded paddy test), 13 to 15 days; for Sedge, Umbrella plant response rating: Flood, 31 g ai/ha, scale 0 to 100 (0 no effect, 100 complete control)
Procedure, shortened: as §2

[12] = 31 g ai/ha, 0 to 100 scale (0 no effect, 100 complete control)
[13] = 62 g ai/ha, scale 0 to 100 (0 no effect, 100 complete control)
[14] = 125 g ai/ha, scale 0 (no effect) to 100 (complete control), 13 to 15 days
[15] = 250 g ai/ha, scale 0 to 100 (0 no effect, 100 complete control), 13 to 15 days
[16] = 62 g ai/ha, scale of 0 to 100 where 0 is no effect and 100 is complete control
[17] = 125 g ai/ha, scale 0 to 100, 0 is no effect, 100 is complete control

COCCCn1c(-c2cccc(F)c2)ncc(C(=O)C2=C(O)C3CCC(C3)C2=O)c1=O (stereo not drawn) [Compound 238]
Plant response rating, Surinam Grass [1, 12]: 95 | Plant response rating, Surinam Grass [1, 13]: 100 | Plant response rating, Surinam Grass [1, 14]: 100 | Plant response rating, Surinam Grass [1, 15]: 100 | Plant response rating, Bermudagrass [2, 12]: 95 | Plant response rating, Bermudagrass [2, 13]: 98 | Plant response rating, Bermudagrass [2, 14]: 100 | Plant response rating, Bermudagrass [2, 15]: 100 | Plant response rating, Bromegrass, Downy [3, 12]: 10 | Plant response rating, Bromegrass, Downy [3, 13]: 40 | Plant response rating, Bromegrass, Downy [3, 14]: 50 | Plant response rating, Bromegrass, Downy [3, 15]: 85 | Plant response rating, Lambsquarters [4, 12]: 100 | Plant response rating, Lambsquarters [4, 13]: 100 | Plant response rating, Lambsquarters [4, 14]: 100 | Plant response rating, Lambsquarters [4, 15]: 100 | Plant response rating, Pigweed [5, 12]: 100 | Plant response rating, Pigweed [5, 13]: 100 | Plant response rating, Pigweed [5, 14]: 100 | Plant response rating, Pigweed [5, 15]: 100 | Plant response rating, Wheat [6, 12]: 40 | Plant response rating, Wheat [6, 13]: 45 | Plant response rating, Wheat [6, 14]: 80 | Plant response rating, Wheat [6, 15]: 80 | Plant response rating, Cupgrass, Woolly [7, 12]: 95 | Plant response rating, Cupgrass, Woolly [7, 13]: 100 | Plant response rating, Cupgrass, Woolly [7, 14]: 100 | Plant response rating, Cupgrass, Woolly [7, 15]: 100 | Plant response rating, Nutsedge, Yellow [8, 12]: 20 | Plant response rating, Nutsedge, Yellow [8, 13]: 20 | Plant response rating, Nutsedge, Yellow [8, 14]: 20 | Plant response rating, Nutsedge, Yellow [8, 15]: 25 | Plant response rating, Flood, Barnyardgrass [9]: 40 | Plant response rating, Barnyardgrass [9, 16]: 0 | Plant response rating, Barnyardgrass [9, 17]: 30 | Barnyardgrass plant response rating [9]: 0 | Plant response rating, Flood, Ducksalad [10]: 100 | Plant response rating, Ducksalad [10, 16]: 40 | Plant response rating, Ducksalad [10, 17]: 80 | Ducksalad plant response rating [10]: 0 | Plant response rating, Flood, Rice (rice (Oryza sativa)): 0 | Plant response rating, Rice (rice (Oryza sativa); [16]): 0 | Plant response rating, Rice (rice (Oryza sativa); [17]): 0 | Rice plant response rating (rice (Oryza sativa)): 0 | Plant response rating, Flood, Sedge, Umbrella [11]: 80 | Plant response rating, Sedge, Umbrella [11, 16]: 0 | Plant response rating, Sedge, Umbrella [11, 17]: 65 | Sedge, Umbrella plant response rating [11]: 0

CCn1c(-c2ccccc2)ncc(C(=O)C2=C(O)C3CCC(C3)C2=O)c1=O (stereo not drawn) [Compound 239]
Plant response rating, Surinam Grass [1, 12]: 25 | Plant response rating, Surinam Grass [1, 13]: 35 | Plant response rating, Surinam Grass [1, 14]: 45 | Plant response rating, Surinam Grass [1, 15]: 75 | Plant response rating, Bermudagrass [2, 12]: 95 | Plant response rating, Bermudagrass [2, 13]: 100 | Plant response rating, Bermudagrass [2, 14]: 100 | Plant response rating, Bermudagrass [2, 15]: 100 | Plant response rating, Bromegrass, Downy [3, 12]: 0 | Plant response rating, Bromegrass, Downy [3, 13]: 5 | Plant response rating, Bromegrass, Downy [3, 14]: 5 | Plant response rating, Bromegrass, Downy [3, 15]: 10 | Plant response rating, Lambsquarters [4, 12]: 98 | Plant response rating, Lambsquarters [4, 13]: 98 | Plant response rating, Lambsquarters [4, 14]: 100 | Plant response rating, Lambsquarters [4, 15]: 100 | Plant response rating, Pigweed [5, 12]: 95 | Plant response rating, Pigweed [5, 13]: 98 | Plant response rating, Pigweed [5, 14]: 98 | Plant response rating, Pigweed [5, 15]: 100 | Plant response rating, Wheat [6, 12]: 0 | Plant response rating, Wheat [6, 13]: 0 | Plant response rating, Wheat [6, 14]: 5 | Plant response rating, Wheat [6, 15]: 30 | Plant response rating, Cupgrass, Woolly [7, 12]: 75 | Plant response rating, Cupgrass, Woolly [7, 13]: 95 | Plant response rating, Cupgrass, Woolly [7, 14]: 95 | Plant response rating, Cupgrass, Woolly [7, 15]: 95 | Plant response rating, Nutsedge, Yellow [8, 12]: 30 | Plant response rating, Nutsedge, Yellow [8, 13]: 30 | Plant response rating, Nutsedge, Yellow [8, 14]: 65 | Plant response rating, Nutsedge, Yellow [8, 15]: 70 | Plant response rating, Flood, Barnyardgrass [9]: 15 | Plant response rating, Barnyardgrass [9, 16]: 0 | Plant response rating, Barnyardgrass [9, 17]: 0 | Barnyardgrass plant response rating [9]: 0 | Plant response rating, Flood, Ducksalad [10]: 80 | Plant response rating, Ducksalad [10, 16]: 0 | Plant response rating, Ducksalad [10, 17]: 70 | Ducksalad plant response rating [10]: 0 | Plant response rating, Flood, Rice (rice (Oryza sativa)): 0 | Plant response rating, Rice (rice (Oryza sativa); [16]): 0 | Plant response rating, Rice (rice (Oryza sativa); [17]): 0 | Rice plant response rating (rice (Oryza sativa)): 0 | Plant response rating, Flood, Sedge, Umbrella [11]: 75 | Plant response rating, Sedge, Umbrella [11, 16]: 0 | Plant response rating, Sedge, Umbrella [11, 17]: 40 | Sedge, Umbrella plant response rating [11]: 0

Source: US8952024B2, “Herbicidal pyrimidone derivatives” (E I du Pont de Nemours and Company, priority 2009, dated 2015)
